According to ChEMBL document CHEMBL1130879, “trans-3-Benzyl-4-hydroxy-7-chromanylbenzoic acid derivatives as antagonists of the leukotriene B4 (LTB4) receptor” (Bioorg Med Chem Lett, 1998):

Key:
[1] = Ratio of CD11b(WB) IC50 to CD11b (IC)IC50; assay type: functional
[2] = molecular target: Leukotriene B4 receptor (Cavia porcellus); assay: Compound was evaluated for its ability to inhibit [3H]LTB4 binding to LTB4 receptors on guinea pig spleen membranes
Leukotriene B4 receptor [3] = molecular target: T1, Leukotriene B4 receptor (Homo sapiens, UniProt Q9NPC1+Q15722); assay: Ability to inhibit LTB4-induced CD11b up-regulation on isolated human neutrophils in whole blood; assay type: functional, tissue-based
Leukotriene B4 receptor [4] = molecular target: T1, Leukotriene B4 receptor; assay: Ability to inhibit LTB4-induced CD11b up-regulation on isolated human neutrophils; assay type: functional
Leukotriene B4 receptor [5] = molecular target: T1, Leukotriene B4 receptor; assay: Ability to inhibit LTB4-induced chemotaxis of isolated human neutrophils.; assay type: functional
Leukotriene B4 receptor [6] = molecular target: T1, Leukotriene B4 receptor; assay: Ability to inhibit LTB4 binding to LTB receptors on isolated human neutrophils.; assay type: protein assay

Structure (SMILES) | IC50 [2] | IC50 (Leukotriene B4 receptor [3]) | IC50 (Leukotriene B4 receptor [4]) | IC50 (Leukotriene B4 receptor [5]) | IC50 (Leukotriene B4 receptor [6]) | Ratio [1]
O=C(O)c1ccc(F)cc1-c1ccc2c(c1)OC[C@H](Cc1ccc(-c3ccccc3)cc1)[C@H]2O (stereo in doubt; 25) [listing 1 of 2 here] |  |  |  |  |  | 7.3
O=C(O)c1ccc(C(F)(F)F)cc1-c1ccc2c(c1)OC[C@H](Cc1ccc(Cl)cc1)[C@H]2O |  |  |  | 58 nM | 70 nM | 
O=C(O)c1ccc(Cl)cc1-c1ccc2c(c1)OC[C@H](Cc1ccc(-c3ccccc3)cc1)[C@H]2O (stereo in doubt; 23) [listing 1 of 2 here] |  |  |  |  |  | 6.6
O=S(=O)(Nc1ccc(F)cc1-c1ccc2c(c1)OC[C@H](Cc1ccccc1)[C@H]2O)C(F)(F)F (stereo in doubt; 38) [listing 1 of 2 here] |  |  |  |  |  | 0.9
O=C(O)c1ccc(C(F)(F)F)cc1-c1ccc2c(c1)OC[C@H](Cc1ccccc1)[C@H]2O (stereo in doubt; 16) |  |  |  |  |  | 2.3
O=C(O)c1ccc(Cl)cc1-c1ccc2c(c1)OC[C@H](Cc1ccc(-c3ccccc3)cc1)[C@H]2O (stereo in doubt; 22) [listing 1 of 2 here] |  |  |  |  |  | 3.3
O=C(O)c1ccc(C(F)(F)F)cc1-c1ccc2c(c1)OC[C@H](Cc1ccc(-c3ccccc3)cc1)[C@H]2O (stereo in doubt; 26) [listing 1 of 2 here] |  |  |  |  |  | 15.8
O=C(O)c1ccc(Cl)cc1-c1ccc2c(c1)OC[C@H](Cc1ccccc1)[C@H]2O (stereo in doubt; 7) |  |  |  | 83 nM | 200 nM | 
O=C(O)c1c(F)cccc1-c1ccc2c(c1)OC[C@H](Cc1ccccc1)[C@H]2O (stereo in doubt; 12) |  |  |  | 10 nM | 22 nM | 
O=C(O)c1ccc(Cl)cc1-c1ccc2c(c1)OC[C@H](Cc1ccccc1)[C@H]2O (stereo in doubt; 6) [listing 1 of 2 here] |  | 1300 nM | 265 nM | 30 nM | 14 nM | 
O=C(O)c1c(-c2ccc3c(c2)OC[C@H](Cc2ccccc2)[C@H]3O)cccc1C(F)(F)F |  | 890 nM | 750 nM | 24 nM | 46 nM | 1.2
O=C(O)c1ccc(C(F)(F)F)cc1-c1ccc2c(c1)OC[C@H](Cc1ccc(-c3ccccc3)cc1)[C@H]2O (stereo in doubt; 26) [listing 2 of 2 here] |  | 1900 nM | 120 nM | 6 nM | 38 nM | 
O=C(O)c1ccc(F)cc1-c1ccc2c(c1)OC[C@H](Cc1ccccc1)[C@H]2O (stereo in doubt; 9) [listing 1 of 2 here] |  |  |  |  |  | 2.5
O=C(O)c1ccc(F)cc1-c1ccc2c(c1)OC[C@H](Cc1ccc(-c3ccccc3)cc1)[C@H]2O (stereo in doubt; 24) [listing 1 of 2 here] |  |  |  |  |  | 2.5
O=C(O)c1c(F)cc(F)cc1-c1ccc2c(c1)OC[C@H](Cc1ccccc1)[C@H]2O |  | 200 nM | 300 nM | 40 nM | 5 nM | 0.7
O=C(O)c1ccc(Cl)cc1-c1ccc2c(c1)OC[C@H](Cc1ccccc1)[C@H]2O (stereo in doubt; 6) [listing 2 of 2 here] |  |  |  |  |  | 4.9
O=C(O)c1ccc(Cl)cc1-c1ccc2c(c1)OC[C@H](Cc1ccc(-c3ccccc3)cc1)[C@H]2O (stereo in doubt; 22) [listing 2 of 2 here] |  | 1700 nM | 520 nM | 6 nM | 4 nM | 
O=C(O)c1ccc(C(F)(F)F)cc1-c1ccc2c(c1)OC[C@H](Cc1ccc(-c3ccccc3)cc1)[C@H]2O (stereo in doubt; 27) [listing 2 of 2 here] |  |  |  |  |  | 4.9
O=C(O)c1ccc(F)cc1-c1ccc2c(c1)OC[C@H](Cc1ccccc1)[C@H]2O (stereo in doubt; 10) [listing 2 of 2 here] |  |  |  |  |  | 1.2
O=C(O)c1ccc(F)cc1-c1ccc2c(c1)OC[C@H](Cc1ccccc1)[C@H]2O (stereo in doubt; 9) [listing 2 of 2 here] |  | 600 nM | 240 nM | 14 nM | 3 nM | 
O=C(O)c1ccc(Cl)cc1-c1ccc2c(c1)OC[C@H](Cc1ccc(C(F)(F)F)cc1)[C@H]2O |  |  |  | 9000 nM | 400 nM | 
O=C(O)c1c(F)cccc1-c1ccc2c(c1)OC[C@H](Cc1ccccc1)[C@H]2O (stereo in doubt; 13) [listing 2 of 2 here] |  |  |  |  |  | 2.5

Continued, in another order:

IC50 [2] | IC50 (Leukotriene B4 receptor [3]) | IC50 (Leukotriene B4 receptor [4]) | IC50 (Leukotriene B4 receptor [5]) | IC50 (Leukotriene B4 receptor [6]) | Structure (SMILES) | Ratio [1]
> 1000 nM |  |  |  |  | O=C(O)c1ccc(C(=O)O)c(-c2ccc3c(c2)OC[C@H](Cc2ccccc2)[C@H]3O)c1 | 
160 nM |  |  |  |  | COc1ccc(C(=O)O)c(-c2ccc3c(c2)OC[C@H](Cc2ccccc2)[C@H]3O)c1 | 
 | 5100 nM | 700 nM | 5 nM | 14 nM | O=C(O)c1ccc(F)cc1-c1ccc2c(c1)OC[C@H](Cc1ccc(-c3ccccc3)cc1)[C@H]2O (stereo in doubt; 25) [listing 2 of 2 here] | 
59 nM |  |  | 26 nM | 12 nM | O=C(O)c1ccc(Cl)cc1-c1ccc2c(c1)OC[C@H](Cc1ccccc1)[C@H]2O (stereo in doubt; 5) | 
 | 3500 nM | 3000 nM | 5 nM | 27 nM | O=C(O)c1ccc(F)cc1-c1ccc2c(c1)OC[C@H](Cc1ccccc1)[C@H]2O (stereo in doubt; 10) [listing 1 of 2 here] | 
 |  |  | 6400 nM | 1700 nM | COC(=O)c1ccc(Cl)cc1-c1ccc2c(c1)OC[C@H](Cc1ccccc1)[C@H]2O | 
 |  |  | 7 nM | 13 nM | O=C(O)c1ccc(C(F)(F)F)cc1-c1ccc2c(c1)OC[C@H](Cc1ccccc1)[C@H]2O (stereo in doubt; 15) [CP-195543] | 
 |  |  | 32 nM | 35 nM | O=C(O)c1ccc(F)cc1-c1ccc2c(c1)OC[C@H](CCc1ccccc1)[C@H]2O | 
 | 330 nM | 360 nM | 15 nM | 3.8 nM | O=S(=O)(Nc1ccc(F)cc1-c1ccc2c(c1)OC[C@H](Cc1ccccc1)[C@H]2O)C(F)(F)F (stereo in doubt; 38) [listing 2 of 2 here] | 
 |  |  | 5 nM | 12 nM | O=C(O)c1ccc(F)cc1-c1ccc2c(c1)OC[C@H](Cc1ccccc1)[C@H]2O (stereo in doubt; 8) | 
 |  |  | 400 nM | 54 nM | O=C(O)c1ccc(Cl)cc1-c1ccc2c(c1)OC[C@H](Cc1ccc(F)cc1)[C@H]2O | 
 |  |  | 9 nM | 1700 nM | OCc1ccc(C(F)(F)F)cc1-c1ccc2c(c1)OC[C@H](Cc1ccccc1)[C@H]2O | 
 |  |  | 1800 nM | 54 nM | O=C(O)c1ccc(F)cc1-c1ccc2c(c1)OC[C@H](Cc1ccc(C(F)(F)F)cc1)[C@H]2O | 
 |  |  | 110 nM | 20 nM | O[C@H]1c2ccc(-c3cc(F)ccc3-c3nn[nH]n3)cc2OC[C@@H]1Cc1ccccc1 | 
 | 4000 nM | 820 nM | 7 nM | 27 nM | O=C(O)c1ccc(C(F)(F)F)cc1-c1ccc2c(c1)OC[C@H](Cc1ccc(-c3ccccc3)cc1)[C@H]2O (stereo in doubt; 27) [listing 1 of 2 here] | 
 |  |  | 210 nM | 190 nM | CC(C)c1ccc(C[C@H]2COc3cc(-c4cc(F)ccc4C(=O)O)ccc3[C@@H]2O)cc1 | 
 |  |  | 300 nM | 24 nM | O=C(O)c1cc(F)ccc1-c1ccc2c(c1)OC[C@H](Cc1ccccc1)[C@H]2O | 
 |  |  | 650 nM | 240 nM | O=C(O)c1c(F)cccc1-c1ccc2c(c1)OC[C@H](Cc1ccccc1)[C@H]2O (stereo in doubt; 14) | 
 | 3900 nM | 590 nM | 26 nM | 8 nM | O=C(O)c1ccc(Cl)cc1-c1ccc2c(c1)OC[C@H](Cc1ccc(-c3ccccc3)cc1)[C@H]2O (stereo in doubt; 23) [listing 2 of 2 here] | 
 | > 3000 nM | > 3000 nM | 44 nM | 50 nM | O=S(=O)(Nc1ccc(F)cc1-c1ccc2c(c1)OC[C@H](Cc1ccccc1)[C@H]2O)C(F)(F)F (stereo in doubt; 39) | 
 | 700 nM | 280 nM | 56 nM | 4 nM | O=C(O)c1ccc(F)cc1-c1ccc2c(c1)OC[C@H](Cc1ccc(-c3ccccc3)cc1)[C@H]2O (stereo in doubt; 24) [listing 2 of 2 here] | 
 | 1000 nM | 400 nM | 40 nM | 11 nM | O=C(O)c1c(F)cccc1-c1ccc2c(c1)OC[C@H](Cc1ccccc1)[C@H]2O (stereo in doubt; 13) [listing 1 of 2 here] | 
 |  |  | 2 nM | 56 nM | O=C(O)c1ccc(C(F)(F)F)cc1-c1ccc2c(c1)OC[C@H](Cc1ccccc1)[C@H]2O (stereo in doubt; 17) [CP-195543] | 
 | > 10000 nM | 540 nM | 17 nM | 37 nM | NS(=O)(=O)c1ccc(F)cc1-c1ccc2c(c1)OC[C@H](Cc1ccccc1)[C@H]2O | 
4700 nM |  |  |  |  | CNC(=O)c1ccc(C(=O)O)c(-c2ccc3c(c2)OC[C@H](Cc2ccccc2)[C@H]3O)c1 | 
 |  |  | 2250 nM | 100 nM | O=C(O)c1ccc(Cl)cc1-c1ccc2c(c1)OC[C@H](Cc1ccc3ccccc3c1)[C@H]2O | 
120 nM |  |  |  |  | O=C(O)c1ccccc1-c1ccc2c(c1)OC[C@H](Cc1ccccc1)[C@H]2O | 
 | 660 nM | 280 nM | 2.4 nM | 6.8 nM | O=C(O)c1ccc(C(F)(F)F)cc1-c1ccc2c(c1)OC[C@H](Cc1ccccc1)[C@H]2O (stereo in doubt; 16) [CP-195543] | 
